Here are results for 15 compounds from ChEMBL document CHEMBL1201862, “PubChem BioAssay data set” (2004).

Experiment [1] is described as follows: NIH-3T3 fibroblast cytotoxicity, dose response, cytotoxicity control, cell-based, fluorescence, Alamar Blue, secondary assay (AID 2327).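 Note: NIH-3T3 mouse fibroblasts cultured with fluconazole at 8 µg/mL.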 It is filed as functional.
Experiment [2] has as its target ATP-dependent molecular chaperone HSP82 (Candida albicans (strain WO-1) (Yeast), UniProt C4YTQ8). In words: steroid-induced GRE reporter decrease in yeast – S. cerevisiae, luminescence, Hsp90 inhibitor project, dose response (AID 2400).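 Note: beta-galactosidase luminescence from glucocorticoid response element reporter as proxy for Hsp90 function; inhibitor potency where signal loss means Hsp90 inhibition.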 Format: functional, cell-based.
A short description of experiment [3]: fluconazole-exposed Candida albicans growth modulators – fluorescence, retest, confirmation (AID 2467). It is filed as functional, cell-based.
The target of experiment [4] is T1, Serine/threonine-protein phosphatase (Candida dubliniensis (strain CD36 / CBS 7987 / NCPF 3949 / NRRLY-17841) (Yeast), UniProt B9W6M3).
T1 sequence (B9W6M3 whole entry): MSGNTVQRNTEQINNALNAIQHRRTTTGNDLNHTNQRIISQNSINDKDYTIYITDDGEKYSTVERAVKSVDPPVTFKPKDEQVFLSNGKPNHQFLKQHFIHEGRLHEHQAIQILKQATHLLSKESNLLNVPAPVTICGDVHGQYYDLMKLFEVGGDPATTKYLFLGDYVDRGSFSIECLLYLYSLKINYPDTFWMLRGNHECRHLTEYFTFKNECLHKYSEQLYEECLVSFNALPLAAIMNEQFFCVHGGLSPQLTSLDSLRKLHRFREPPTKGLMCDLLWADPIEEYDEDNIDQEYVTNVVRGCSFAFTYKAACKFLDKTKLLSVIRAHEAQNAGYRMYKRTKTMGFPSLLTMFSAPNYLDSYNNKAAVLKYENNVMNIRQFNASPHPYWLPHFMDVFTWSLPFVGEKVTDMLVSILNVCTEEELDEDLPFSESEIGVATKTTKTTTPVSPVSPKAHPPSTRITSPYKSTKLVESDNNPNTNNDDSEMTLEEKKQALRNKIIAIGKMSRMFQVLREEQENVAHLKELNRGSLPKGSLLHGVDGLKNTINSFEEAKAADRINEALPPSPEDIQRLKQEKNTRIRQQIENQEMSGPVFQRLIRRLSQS
In words: blockers of CaCl2-induced CDRE-lacZ signaling – S. cerevisiae, luminescence, secondary, dose response (AID 2388).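 Note: yeast reporter cells carrying a calcineurin-responsive lacZ construct stimulated with calcium chloride; luminescent beta-galactosidase reporter signal in whole cells rather than isolated phosphatase activity; potency for inhibition where a drop in reporter signal means calcineurin blockade.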 Format: functional, cell-based.

Experiment [5] can be described thus: NIH3T3 cell viability loss – ATP luminescence, mouse fibroblasts, counter-screen, dose response (AID 2010).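 Note: cells exposed to compound for about 90 hours before reading.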 Format: functional, cell-based.
The nature of experiment [6]: non-specific 3'UTR reporter inhibition in Clone20-Shn3RL – cell-based, Renilla luciferase, cherry-picked, counter-screen for Shn3 inhibitor project, dose response (AID 624133). Format: functional.
Experiment [7] in a line: reduction of Shn3 3'UTR-driven luciferase in osteoblasts – cell-based, Clone20 osteoblasts, firefly luciferase, cherry-picked, dose response (AID 624132).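 Note: firefly luciferase luminescence from reporter carrying the Shn3 3'UTR in osteoblasts.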 It is filed as functional.
The nature of experiment [8]: Trypanosoma cruzi growth suppression in host cells – NIH3T3 host cells, beta-gal luminescence, confirmation (AID 2044).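 Note: intracellular parasites grown in NIH/3T3 mouse fibroblasts as host cells; luminescent beta-galactosidase reporter signal from transgenic T. cruzi replicating inside host cells; inhibitors lower the luminescence signal.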 Format: functional, cell-based.
The nature of experiment [9]: loss of viability in HepG2 cells – cell-based, CellTiter-Glo, cherry-picked, cytotoxicity control for Shn3 inhibitor project, dose response (AID 624134). Format: functional.
The next experiment concerns the target Protein Wnt-3a (Mus musculus, UniProt P27467). In words: antagonism of Wnt3a pathway luciferase reporter – Wnt-LIGHT cells, luminescence, selectivity assay for Gli-SUFU antagonist project, dose response (AID 651570).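 Note: Wnt-LIGHT reporter cells stimulated with conditioned medium from Wnt3a-producing cells.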 Format: functional. As to conditions: read-out: IC50_Mean.
The subject of another experiment is INS1. As to the kind of experiment: INS-1E survival protection against cytokine death – cell-based, luminescence, retest, dose response (AID 449756).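 Note: cell death triggered by IL-1 beta plus TNF-alpha plus IFN-gamma mixture; protective hits raise ATP signal compared with cytokine alone wells.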 Format: functional. The note with it: Rattus norvegicus.
The target in experiment [10] is T2, High affinity choline transporter 1 (Homo sapiens, UniProt Q9GZV3).
T2 sequence (Q9GZV3 whole entry): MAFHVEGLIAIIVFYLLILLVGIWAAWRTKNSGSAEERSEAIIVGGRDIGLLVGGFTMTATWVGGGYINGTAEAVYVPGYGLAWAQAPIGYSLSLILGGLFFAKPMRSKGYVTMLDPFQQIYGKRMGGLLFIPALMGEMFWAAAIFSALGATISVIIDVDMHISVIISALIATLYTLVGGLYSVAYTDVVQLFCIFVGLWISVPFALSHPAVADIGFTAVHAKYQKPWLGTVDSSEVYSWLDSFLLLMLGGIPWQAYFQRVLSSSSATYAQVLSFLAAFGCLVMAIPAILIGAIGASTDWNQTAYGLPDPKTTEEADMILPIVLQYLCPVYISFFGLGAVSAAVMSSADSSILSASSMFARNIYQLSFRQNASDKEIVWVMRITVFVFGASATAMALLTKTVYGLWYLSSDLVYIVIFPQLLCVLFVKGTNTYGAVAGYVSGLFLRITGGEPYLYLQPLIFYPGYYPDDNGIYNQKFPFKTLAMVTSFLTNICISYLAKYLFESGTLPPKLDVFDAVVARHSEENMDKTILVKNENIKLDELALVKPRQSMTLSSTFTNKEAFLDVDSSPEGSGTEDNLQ
As to the kind of experiment: human choline transporter blockers, potency – cell-based, 5-point CRC, membrane potential dye, dose response (AID 504840). Format: functional.

For another experiment, the system named is Streptococcus. In words: GAS UMAA2166 growth inhibition – luminescence, BacTiterGlo, counter-screen for streptokinase expression inhibitor project, dose response (AID 1915).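 Note: potency for reduction of bacterial viability or growth.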 Format: functional, organism-based.
Another experiment addresses T3, Streptokinase A (Streptococcus pyogenes serotype M1, UniProt P10520).
T3 sequence (P10520 whole entry): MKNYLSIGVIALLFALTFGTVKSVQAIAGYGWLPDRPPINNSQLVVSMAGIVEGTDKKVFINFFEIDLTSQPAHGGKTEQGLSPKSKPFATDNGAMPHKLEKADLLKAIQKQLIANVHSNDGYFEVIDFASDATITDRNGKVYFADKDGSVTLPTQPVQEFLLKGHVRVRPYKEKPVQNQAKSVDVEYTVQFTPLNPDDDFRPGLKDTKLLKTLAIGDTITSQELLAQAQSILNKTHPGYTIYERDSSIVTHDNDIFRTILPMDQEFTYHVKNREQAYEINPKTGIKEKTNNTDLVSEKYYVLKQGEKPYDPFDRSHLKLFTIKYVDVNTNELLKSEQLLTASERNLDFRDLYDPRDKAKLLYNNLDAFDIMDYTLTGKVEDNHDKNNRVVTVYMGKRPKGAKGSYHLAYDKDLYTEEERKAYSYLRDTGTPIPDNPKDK
In words: viability-normalized secreted streptokinase activity reduction – plasminogen activation absorbance, OD405, dose response (AID 1914).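 Note: secreted streptokinase activity via plasminogen activation per viability signal from cell pellet.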 It is filed as functional, Streptococcus pyogenes M1 GAS.

The subject of experiment [11] is Streptococcus sp. 'group A'. As to the kind of experiment: Streptococcus pyogenes SK(-)GAS viability under kanamycin – luminescence, BacTiterGlo, confirmation, counter-screen for streptokinase expression inhibitor project, dose response (AID 1900). Format: functional, organism-based.
Experiment [12] addresses T4, Microphthalmia-associated transcription factor (Homo sapiens, UniProt O75030).
T4 sequence (O75030 whole entry): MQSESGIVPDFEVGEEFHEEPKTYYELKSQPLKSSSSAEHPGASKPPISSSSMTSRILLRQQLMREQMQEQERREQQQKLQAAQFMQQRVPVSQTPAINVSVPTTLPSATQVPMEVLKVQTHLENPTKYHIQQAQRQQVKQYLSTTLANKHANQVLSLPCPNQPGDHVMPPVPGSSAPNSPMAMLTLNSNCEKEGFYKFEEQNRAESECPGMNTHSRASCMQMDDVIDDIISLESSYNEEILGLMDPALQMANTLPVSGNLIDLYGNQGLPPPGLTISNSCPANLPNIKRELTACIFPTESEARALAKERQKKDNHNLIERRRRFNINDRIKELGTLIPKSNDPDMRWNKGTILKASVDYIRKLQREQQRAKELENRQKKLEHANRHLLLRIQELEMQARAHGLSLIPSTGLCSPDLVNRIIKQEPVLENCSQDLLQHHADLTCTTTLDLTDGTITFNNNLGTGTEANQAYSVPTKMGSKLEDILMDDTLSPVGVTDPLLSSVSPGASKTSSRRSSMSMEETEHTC
In words: reducers of TRPM1 reporter luminescence, concentration series – cell-based, SK-MEL-5, cherry-picked, set 3, MITF inhibitor project, dose response (AID 493073).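 Note: SK-MEL-5 melanoma cells with luciferase driven by the MITF target TRPM1 promoter.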 It is filed as functional.

The target of experiment [13] is Heat shock protein HSP 90-alpha (Homo sapiens, UniProt P07900). It is filed as functional, organism-based.
The next experiment in a line: cells. Format: functional.
Another experiment concerns Vero. As to the kind of experiment: cells. The note with it: Chlorocebus sabaeus. Format: functional.
Experiment [14] in a line: Luminescence Cell-Based Dose Retest to Confirm Inhibitors of Cancer Stem Cells. [Related pubchem assays (depositor defined):AID2717, AID2721]. It is filed as functional, Homo sapiens. As to conditions: Homo sapiens.

The structures appear in SMILES notation. Calls of active or inactive are those of the source.

Chain of ATP-dependent molecular chaperone HSP82 (C4YTQ8 whole entry): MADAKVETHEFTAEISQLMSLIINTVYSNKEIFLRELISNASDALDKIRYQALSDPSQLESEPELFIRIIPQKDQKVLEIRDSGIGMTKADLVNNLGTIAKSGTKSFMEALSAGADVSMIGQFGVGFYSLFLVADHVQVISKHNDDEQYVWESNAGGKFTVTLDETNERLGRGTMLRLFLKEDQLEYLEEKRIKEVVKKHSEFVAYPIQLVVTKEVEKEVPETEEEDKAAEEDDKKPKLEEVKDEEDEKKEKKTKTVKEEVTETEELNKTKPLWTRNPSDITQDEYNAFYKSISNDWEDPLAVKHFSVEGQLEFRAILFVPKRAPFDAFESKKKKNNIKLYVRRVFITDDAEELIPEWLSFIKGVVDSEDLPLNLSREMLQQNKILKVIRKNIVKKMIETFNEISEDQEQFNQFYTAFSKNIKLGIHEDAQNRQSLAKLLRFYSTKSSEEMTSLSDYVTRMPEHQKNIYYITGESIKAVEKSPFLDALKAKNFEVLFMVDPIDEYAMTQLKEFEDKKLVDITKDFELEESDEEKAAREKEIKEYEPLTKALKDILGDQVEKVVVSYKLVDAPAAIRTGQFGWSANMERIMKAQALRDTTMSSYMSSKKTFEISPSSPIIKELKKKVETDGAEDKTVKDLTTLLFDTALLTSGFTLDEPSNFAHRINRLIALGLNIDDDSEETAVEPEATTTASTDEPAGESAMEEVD
Chain of Protein Wnt-3a (P27467 whole entry): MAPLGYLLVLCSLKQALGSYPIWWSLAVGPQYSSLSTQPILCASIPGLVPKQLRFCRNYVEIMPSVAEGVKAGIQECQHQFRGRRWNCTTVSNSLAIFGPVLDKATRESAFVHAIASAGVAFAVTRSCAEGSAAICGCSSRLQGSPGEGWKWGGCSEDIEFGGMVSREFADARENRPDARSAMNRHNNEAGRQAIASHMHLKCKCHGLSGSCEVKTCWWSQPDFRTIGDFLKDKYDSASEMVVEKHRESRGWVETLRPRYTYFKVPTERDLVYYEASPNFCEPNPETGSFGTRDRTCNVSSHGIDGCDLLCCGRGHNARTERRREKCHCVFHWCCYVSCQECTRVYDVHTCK

Regarding `Sc1nnc(C2CCCCC2)n1/N=C/c1ccc(Br)s1`, the EC50 in experiment [1] is > 150 µM (inactive); in [2], 18.9 µM (active); in experiment [3], 1070 nM (active); in experiment [4] it was > 180 µM (inactive).

For the compound `CCC(=O)NC(c1ccco1)c1cc(Cl)c2cccnc2c1O` (stereo not given), the EC50 is 7.21 µM (active) in experiment [5]; 1970 nM (active) in [8]; 24.9 µM (active) in experiment [1]; > 150 µM (inactive) in experiment [2]; 560 nM (active) in experiment [3]; > 180 µM (inactive) in [4]. Moreover, the AC50 in experiment [6] is 3.57 µM (active); in [7], 1.31 µM (active); in [9], 7.81 µM (active).

For `C[C@@H]1COC(=O)[C@H](NC(=O)OCC2c3ccccc3-c3ccccc32)C/C=C\C[C@@H](CC(=O)N[C@@H](CO)Cc2ccccc2)C(=O)N1`, the IC50 on Protein Wnt-3a is 12.3 µM (active).

Consider `O=C(Nc1ccc(C(F)(F)F)cc1)C1CCN(S(=O)(=O)c2ccc(N3CCCC3=O)cc2)CC1`, for which, at Protein Wnt-3a, the IC50 was 2.18 µM (active). Also, the AC50 with INS1 was 3.1 µM (active).

As to `Cn1c(N2CCOCC2)c(/C=N/OC(=O)c2ccc(F)cc2)c2ccccc21`, the EC50 in experiment [5] was 1.98 µM (active); in experiment [8], 596 nM (active); in [1], > 160 µM (inconclusive); in experiment [2] it was > 160 µM (inactive); in experiment [3] it was 382 nM (active); in experiment [4], > 180 µM (inactive). In [10], the IC50 was 15.9 µM (active).

For the compound `O=C(Nc1nnc(CCc2ccccc2)s1)c1ccco1`, the EC50 in experiment [1] was > 150 µM (inactive); in [2], > 150 µM (inactive); in [3] it was 1080 nM (active); in [4], > 180 µM (inactive).

As for `Cc1cc(C)c[n+](C(C)C(=O)c2ccc(-c3ccccc3)cc2)c1` (stereo not given), the IC50 at Protein Wnt-3a was 8.95 µM (active).

On to `O=C(N/N=C/c1cc2ccccc2nc1Cl)[C@H]1C[C@@H]1c1ccccc1`, for which the IC50 on Protein Wnt-3a is 39.9 µM (inactive).

With `CC(C)C(=O)NC(c1cccs1)c1cc([N+](=O)[O-])c2cccnc2c1O` (stereo not given), the EC50 in the experiment on Streptococcus was 6.98 µM (active); at Streptokinase A, > 150 µM (not active); in experiment [11], 2.59 µM (active); in [1] it was 13.4 µM (active); in experiment [2], 24.6 µM (active); in experiment [3] it was 242 nM (active). In experiment [4], the EC50 was > 180 µM (inactive). Besides, in the experiment with INS1, the AC50 is 3.87 µM (active).

`O=C(Nc1ccccc1N1CCOCC1)c1ccc([N+](=O)[O-])s1`: the half-maximal activity concentration (AC50) is 12.3 µM (active) in experiment [12] and 7.97 µM (active) in experiment [13].

On to `CCCc1c(CC)c(=N)c2ccccc2n1C`, for which the EC50 is > 60 µM (not active) in experiment [5] and 121 nM (active) in experiment [8]. The IC50 at Protein Wnt-3a is 11.3 µM (active).

For `O=C(COC(=O)CCN1C(=O)/C(=C\C=C\c2ccccc2)SC1=S)Nc1cc(F)ccc1F`, the IC50 in the experiment “cells” was 26.4 µM (active). Besides, the AC50 in [12] is 7.49 µM (active).

As to `O=C(c1ccc(Cn2c(=O)[nH]c3ccccc3c2=O)cc1)N1CCN(c2ccc(F)cc2)CC1`, the EC50 was 14.3 µM (active) in [1], > 150 µM (inactive) in experiment [2], 912 nM (active) in experiment [3] and > 180 µM (inactive) in [4].

`COc1ccc(Br)cc1C(C[N+](=O)[O-])c1c(N)n(C)c(=O)n(C)c1=O` (stereo not given): the CC50 with Vero is 10.5 µM (active). The AC50 in [14] was 3.46 µM (active); in experiment [12] it was 8.73 µM (active).

Regarding `C[C@@H]1CC[C@@]2(NC1)O[C@H]1C[C@H]3[C@@H]4CC=C5C[C@@H](O)CC[C@]5(C)[C@H]4CC[C@]3(C)[C@H]1[C@@H]2C`, the EC50 in experiment [1] was > 160 µM (inconclusive); in experiment [2], > 160 µM (inactive); in experiment [3], 272 nM (active); in experiment [4], > 180 µM (inactive).
